Publication PMC10005222, “Development of a Novel Apigenin Dosage form as a Substitute for the Modern Triple Antithrombotic Regimen” (Molecules, 2023)

Tests used:
[1] = test system: ADP-induced platelet aggregation; assay: ADP-induced platelet aggregation in PRP (light transmittance aggregometry); type: cell-based, human; conditions: for IC50: Homo sapiens, ADP 10 μM, PRP, 1 min pre-incubation, mean ± SD, three platelet preparations
Protocol: (§1) The antiplatelet activity of DHA-apigenin, apigenin, DHA, and equimolar solution of apigenin/DHA was studied in platelet rich plasma (PRP) by light transmittance aggregometry (LTA) assay, as previously described. Briefly, PRP was prepared from peripheral venous blood of apparently healthy normolipidemic volunteers. The platelets of PRP were adjusted to a final concentration of 2.5 × 10^8 per Ml with homologous platelet-poor plasma (PPP). The PRP was then pre-incubated with each one of the compounds for 1 min before the initiation of aggregation. The final DMSO concentration in each assay was <0.5% (v/v). In the control experiments, the PRP was incubated with each one of the compounds for 5 min in order to evaluate whether each tested compound was a platelet activator. Platelet aggregation induced by ADP (10 Μm), AA (500 Μm), and TRAP-6 (10 Μm) was determined in aliquots of 0.5 Ml of PRP, at 37 °C under continuous stirring at 1200 rpm, in a Chronolog Lumi-Aggregometer (model 700 4-channel) equipped with the AggroLink software package. The maximal aggregation, achieved within 4 min after the addition of each agonist, was determined and expressed as a percentage of 100% light transmission calibrated for each specimen (maximal percentage of aggregation; MPA). Τhe inhibitory efficacy of each compound tested was also expressed as IC50 values (concentration that induces 50% inhibition of platelet aggregation). All aggregation studies were conducted within 3 h after blood was drawn. The inhibition of platelet aggregation (IPA) values induced by each compound was calculated using the […].

[2] = Serum pharmacokinetics after oral administration in C57BL/6J mice; type: in vivo; conditions: oral 50 mg/kg in olive oil; for Tmax / half-life / AUC(0-t) / Vd/F / Cmax / AUC(0-inf): male, mouse; for AUC(0-t): 0-6 h, read-out: AUC0−t, Estimate (%CV); for Vd/F / Cl/F: normalized to fraction absorbed; for Vd/F: read-out: Vz/F; for Cmax: read-out: Cmax, Estimate (%CV); for AUC(0-inf): to be considered with caution (high extrapolation); for AUC % extrapolated: based on λz, 50 mg/kg
Protocol: For the detection of the conjugate, the EVOQ Elite ER TQ (Bruker) mass spectrometer was operated in negative ionization electrospray mode (ESI) under multiple reaction monitoring (MRM). […] Optimum ESI conditions were determined as follows: spray voltage, 4500 V; heated probe gas flow, 50 units; heated probe temperature 350℃; cone gas flow, 20 units; cone temperature, 200 °C; nebulizer gas flow, 40 units. Total control of LC and MS, as well as data acquisition, were performed with MSWS software, Version 8.2.1 (Bruker). For the pharmacokinetic studies, a Xevo-G2-XS-QtoF mass spectrometer, coupled to a Waters UPLC I-Class Binary Solvent Manager (Waters Corp., Milford, MA, USA) was used. The mobile phases were composed of water (LC-MS grade) with formic acid 0.1% (A), and acetonitrile (LC-MS grade) with formic acid 0.1% (B). A constant flow of […] was used, with an injection volume of 1 μL; the gradient was as follows: initial phase (B) concentration 20%, increased to 100% within 1.5 min, then kept constant for 1 min, and reduced to 20% until the end of the run (4 min total runtime). The MS conditions were as follows: the scan range was set at m/z 100–600, and the source voltage was 0.8 Kv in negative ionization electrospray mode (ESI). The source temperature was 550 °C, the flow of desolvation gas (N2) was set to 1000 L per hour, and the cone gas flow was set to 20 L per hour. For MS/MS, the collision energy ramp was set from 20 eV to 40 eV, and the declustering potential was 40 V. The column used was the Acquity UPLC® BEH C18 1.7 µm device. For the post processing and analysis of the acquisition data, UNIFY soFTware was used.
60 male 8-week-old C57BL/6J wild type mice, with mean weight equal to 23.5 ± 2.1 g were randomly divided in two groups (a, b) of 30 and each one received different treatment as follows: (a) the apigenin hybrid formulation and (b) the parent apigenin, dissolved in extra virgin olive oil, orally via the gavage technique at the dose of 50 mg/kg. Mice in each group were randomly further divided in 6 subgroups of five, each group representing one sampling time point (15, 30, 60, 120, 240, and 360 min). Animals were anaesthetized with sevoflurane, and sacrificed to collect blood samples via cardiac puncture, in non-heparinized Eppendorf ® Tubes, at the time point of interest after administration. Blood samples were centrifuged (10,000× g rpm, 15 min, 4 °C), and serum was collected, frozen and stored at −70 °C until further processing. In order to quench the reactions, 395 μL of MeOH were added to each sample, along with IS (5 μL of Rosmarinic acid). The samples were vortexed and centrifuged at 10,000× g for 10 min. Then, the supernatant was taken, filtered and transferred to vials for analysis, as described above.
The Phoenix^TM (www.certara.com)®. software was used for data analysis using non-compartmental PK analysis (NCA). More specifically, sparse sampling NCA was performed to determine basic serum PK parameters, namely AUC0−t, AUCinf, Cmax and Tmax, and to calculate the relative oral bioavailability of apigenin after apigenin hybrid formulation and native apigenin oral administration. To calculate the PK parameters and their standard errors (SE), the mean concentration curve is calculated and used in conjunction with the available subject information. The log-linear trapezoidal method was used to calculate AUC0−t and AUCinf, with extrapolation to infinity by dividing the last concentration by the terminal slope, λz (kel, estimated by linear regression analysis on the last three points of the log-transformed concentration vs. time plot).

[3] = test system: TRAP-6-induced platelet aggregation; assay: TRAP-6-induced platelet aggregation in PRP (light transmittance aggregometry); type: cell-based, human; conditions: for IC50: Homo sapiens, TRAP-6 10 μM, PRP, 1 min pre-incubation, mean ± SD, three platelet preparations; for enhanced inhibitory activity with respect to DHA: TRAP-6 induced platelet aggregation
Protocol: as §1

[4] = test system: AA-induced platelet aggregation; assay: AA-induced platelet aggregation in PRP (light transmittance aggregometry); type: cell-based, human; conditions: for IC50: Homo sapiens, AA 500 μM, PRP, 1 min pre-incubation, mean ± SD, three platelet preparations
Protocol: as §1

[5] = Human plasma stability assay (LC-MS/MS); type: in vitro ADME; conditions: 37 °C
Protocol: Liquid chromatography was performed using an Advance Ultra High Performance Liquid Chromatography (UHPLC) system (Bruker, Germany). The column oven was set at 40 °C. For the separation, a Kinetex C18 column 100 mm × 2.1 mm, 2.6 μm, with a 2.1 mm pro-guard column, was used (Phenomenex). The mobile phases were composed of water (LC-MS grade) with formic acid 0.1% (A) and MeOH (B). The gradient followed at a constant flow of […] was: initial phase (B) concentration 5%, increased to 100% within 1 min, then kept constant for 5.5 min, and reduced to 5% until the end of the run. […] The injection volume was 2 μL, while the auto-sampler temperature was 15 °C.
For the detection of the conjugate, the EVOQ Elite ER TQ (Bruker) mass spectrometer was operated in negative ionization electrospray mode (ESI) under multiple reaction monitoring (MRM). […] Optimum ESI conditions were determined as follows: spray voltage, 4500 V; heated probe gas flow, 50 units; heated probe temperature 350℃; cone gas flow, 20 units; cone temperature, 200 °C; nebulizer gas flow, 40 units. Total control of LC and MS, as well as data acquisition, were performed with MSWS software, Version 8.2.1 (Bruker). […]
The in vitro stability of the apigenin molecular hybrid was evaluated in human plasma (Ph was adjusted to 7.4) at 37 °C. […]

[6] = ADP-induced platelet aggregation

| SMILES | IC50 [1] [µM] | Tmax [2] [h] | half-life [2] [h] | AUC(0-t) [2] [ng·h/mL] | Vd/F [2] [L] | Cmax [2] [ng/mL] | AUC(0-inf) [2] [ng·h/mL] | Cl/F [2] [L/h] | IC50 [3] [µM] | IC50 [4] [µM] | other results |
| --- | --- | --- | --- | --- | --- | --- | --- | --- | --- | --- | --- |
| O=c1cc(-c2ccc(O)cc2)oc2cc(O)cc(O)c12 [Apigenin, apigenin] | 607 ± 35 | 2 | 3.44 | 35 | 106 | 10.8 | 58.8 | 21.3 | 56 ± 8 | 850 ± 45 | AUC % extrapolated [2]: 40%; AUC % extrapolated ([2]; listed as native apigenin): 40.5% |
| CC/C=C\C/C=C\C/C=C\C/C=C\C/C=C\C/C=C\CCC(=O)O [DHA, Cis-4,7,10,13,16,19-Docosahexanoic acid, reference compound] | 920 ± 53 |  |  |  |  |  |  |  | 680 ± 42 | 130 ± 18 |  |
| CC/C=C\C/C=C\C/C=C\C/C=C\C/C=C\C/C=C\CCC(=O)Oc1ccc(-c2cc(=O)c3c(O)cc(O)cc3o2)cc1 [4′-DHA-apigenin hybrid, 4′-DHA-apigenin] | 362 ± 20 | 2 | 17.4 | 91.7 | 66.5 | 17.8 | 471 | 2.65 | 52 ± 12 | 353 ± 36 | enhanced inhibitory activity with respect to DHA [1, 6]: ~3 fold; enhanced inhibitory activity with respect to apigenin [1, 6]: ~2 fold; AUC % extrapolated ([2]; listed as 4′-DHA-Apigenin): 80%; AUC % extrapolated ([2]; listed as 4′-DHA-apigenin): 80.5%; enhancement with respect to native apigenin ([3]; TRAP-6): 2 fold; enhanced inhibitory activity with respect to DHA [3]: more than 12 fold; enhanced inhibitory activity with respect to DHA ([3]; listed as 4′-DHA-apigenin): 12 fold; parent compound still present ([5]; after 30 min of incubation): 17.3%; half-life at 5 µM ([5]; pH 7.4, read-out: t1/2 in human plasma): ~0.217 h; enhanced inhibitory activity with respect to apigenin ([4]; AA-induced platelet aggregation): 2 fold |
